The nature of data set [1]: Polydispersity index (PDI) of lipid nanoparticle (dynamic light scattering). The format is physicochemical. Conditions: FVII siRNA LNP; Chol/DSPC/S010, molar ratio 45/44/9/2. The protocol:
Unless indicated otherwise, all PDIs referred to herein are the PDI of the fully formed nanoparticle, as measured by dynamic light scattering on a Malvern Zetasizer. The nanoparticle sample was diluted in phosphate buffered saline (PBS) so that the count rate was approximately 200-400 kcts. The data is presented in Tables 4 and 5 as a weighted average of the intensity measure.

Data set [2] is described as follows: Particle size of lipid nanoparticle (dynamic light scattering, Malvern Zetasizer). The format is physicochemical. The settings on record: FVII siRNA LNP; Chol/DSPC/S010, molar ratio 45/44/9/2; Z-average. The source says:
The lipid nanoparticles have a size of about 1 to about 2,500 nm, about 1 to about 1,500 nm, about 1 to about 1,000 nm, in a sub-embodiment about 50 to about 600 nm, in a sub-embodiment about 50 to about 400 nm, in a sub-embodiment about 50 to about 250 nm, and in a sub-embodiment about 50 to about 150 nm. Unless indicated otherwise, all sizes referred to herein are the average sizes (diameters) of the fully formed nanoparticle, as measured by dynamic light scattering on a Malvern Zetasizer. The nanoparticle sample is diluted in phosphate buffered saline (PBS) so that the count rate is approximately 200-400 kcts. The data is presented as a weighted average of the intensity measure. Unless indicated otherwise, all particle size measurements referred to in Tables 4 and 5 are the Z-average particle size of the fully formed nanoparticle, as measured by dynamic light scattering on a Malvern Zetasizer. The nanoparticle sample was diluted in phosphate buffered saline (PBS) so that the count rate is approximately 200-400 kcts.

The subject of data set [3] is plasma Factor VII enzyme activity. The data set is described as follows: Mouse Factor VII dosing / Factor VII Activity Assay. The format is in vivo. The settings on record: percent knock down of plasma Factor VII activity, CD-1 mice, 48 h; for KD FVII 0.03 mg/kg: single IV dose 0.03 mg/kg; for KD FVII 0.3 mg/kg: single IV dose 0.3 mg/kg. How it is done:
Female CD-1 mice were received from Harlan Labs and maintained on standard lab chow and water ad libitum. The animals weighed approximately 25 grams at time of dosing. Formulated Factor VII siRNA was administered as a single dose intravenously via the lateral tail vein. Approximately 48 hours after injection, the mice were euthanized by CO2 inhalation followed by exsanguination through the vena cava. […] Plasma collected from injected mice was assayed for Factor VII enzyme activity using the Biophen FVII kit from Hyphen Biomedical (catalog number 221304). An assay standard curve was prepared using pooled plasma aliquots from the vehicle control animals. All samples were diluted to fall within the linear range of the standard curve and Factor VII activity relative to control plasma was reported. Lipid nanoparticles comprising lipid compounds of formula (I) and the FVII siRNA duplex sequence listed above were tested in the Factor VII Activity Assay. The results of this assay are given in Table 4 below as a percent knock down of plasma Factor VII enzyme activity at a dose of 0.3 mg/kg and 0.03 mg/kg.

For data set [4], the system named is respiratory syncytial virus F protein. The data set is described as follows: Immunization studies, anti-RSV-F titers. The format is in vivo. Conditions: anti-RSV-F titer, BALB/c, liposomes with 0.1 μg vA317 replicon (naked: 1 μg); for 2wp1 pool 1 / 2wp1 pool 2: 2 weeks after first dose; for 2wp2 pool 1 / 2wp2 pool 2: 2 weeks after second dose; for 4wp2 pool 1 / 4wp2 pool 2: 4 weeks after second dose. How it is done:
BALB/c were immunized with liposomes comprising DSPC, cholesterol, and various lipids of the invention (or, for comparison, the cationic lipid 1,2-dilinoleyloxy-N,N-dimethyl-3-aminopropane or ‘DLinDMA’). The liposomes encapsulated 0.1 μg of “vA317” self-replicating RNA replicon which encodes respiratory syncytial virus F protein (see WO2012/031043). […] Doses were given either on days 0 & 21 or days 0 & 42. Immune responses were assessed 2 weeks after each dose (2wp1, 2wp2), and in some cases also at 4 weeks after the second dose (4wp2).

The mark [5] stands for this setting: LNP Chol/DSPC/PEG-DMG 45/44/9/2.

In the case of `CCCCCCCC(=O)OCC(COC(=O)CCCCCCC)OC(=O)CCC(=O)OCc1cc(COC(=O)CCC(=O)OC(COC(=O)CCCCCCC)COC(=O)CCCCCCC)cc(CN(C)C)c1` [Ex. 107, bis(1,3-bis(octanoyloxy)propan-2-yl) O,O′-((5-((dimethylamino)methyl)-1,3-phenylene)bis(methylene))disuccinate], the PDI in data set [1] worked out at 0.071. Also, the “Size (nm)” value in data set [2] is reported as 191.7 nm.
With `CCCCCCCC(=O)OCCCCCCCCCCOc1cc(CN(CC)CC)cc(OCCCCCCCCCCOC(=O)CCCCCCC)c1OCCCCCCCCCCOC(=O)CCCCCCC` [Ex. 100, ((5-((diethylamino)methyl)benzene-1,2,3-triyl)tris(oxy))tris(decane-10,1-diyl)trioctanoate], the “KD FVII 0.03 mg/kg” value in data set [3] (LNP Chol/DSPC/S010 45/44/9/2) is 26.9%. Moreover, the “KD FVII 0.3 mg/kg” value in data set [3] (setting [5]) was 94.0%.
On to `CCCCCCCC(=O)OC[C@@H](CCOc1cc(CN(C)C)cc(OCC[C@H](COC(=O)CCCCCCC)OC(=O)CCCCCCC)c1)OC(=O)CCCCCCC` [Example 94, (R)-4-(3-((R)-3,4-bis(octanoyloxy)butoxy)-5-((dimethylamino)methyl)phenoxy)butane-1,2-diyldioctanoate], for which the “KD FVII 0.03 mg/kg” value in data set [3] (LNP Chol/DSPC/S010 45/44/9/2) amounted to 90%.
Regarding `CCCCCCCCCC(=O)OCCCCCCCC(=O)OCc1cc(COC(=O)CCCCCCCOC(=O)CCCCCCCCC)cc(CN(C)C)c1` [Example 83], the PDI in data set [1] was determined as 0.005. Also, in data set [2], the “Size (nm)” value came to 128.5 nm.
In the case of `CCCCC/C=C\C/C=C\CCCCCCCC(=O)OCCCCOc1cc(CN(CC)CC)cc(OCCCCOC(=O)CCCCCCC/C=C\C/C=C\CCCCC)c1C` [Example 55, (9Z,9′Z,12Z,12′Z)-((5-((diethylamino)methyl)-2-methyl-1,3-phenylene)bis(oxy))bis(butane-4,1-diyl)bis(octadeca-9,12-dienoate)], the “KD FVII 0.3 mg/kg” value in data set [3] (setting [5]) is 98.0%.
Take `CCCCC/C=C\C/C=C\CCCCCCCCOC(=O)CCCCOc1cc(CN(C)C)cc(OCCCCC(=O)OCCCCCCCC/C=C\C/C=C\CCCCC)c1` [Example 89, di((9Z,12Z)-octadeca-9,12-dien-1-yl) 5,5′-((5-((dimethylamino)methyl)-1,3-phenylene)bis(oxy))dipentanoate]: in data set [1], the PDI came to 0.076. Also, the “Size (nm)” value in data set [2] was determined as 101.5 nm.
Consider `CCCCCCCC(=O)OC[C@H](CCOc1cc(CN(C)C)cc(OCC[C@@H](COC(=O)CCCCCCC)OC(=O)CCCCCCC)c1)OC(=O)CCCCCCC` [Example 93, (S)-4-(3-((S)-3,4-bis(octanoyloxy)butoxy)-5-((dimethylamino)methyl)phenoxy)butane-1,2-diyldioctanoate], for which the “KD FVII 0.03 mg/kg” value in data set [3] (LNP Chol/DSPC/S010 45/44/9/2) is recorded as 89.71%.
With `CC/C=C\C/C=C\C/C=C\CCCCCCCC(=O)OCCCCOc1cc(CN(C)C)cc(OCCCCOC(=O)CCCCCCC/C=C\C/C=C\C/C=C\CC)c1` [Example 62, (9Z,9′Z,12Z,12′Z,15Z,15′Z)-((5-((dimethylamino)methyl)-1,3-phenylene)bis(oxy))bis(butane-4,1-diyl)bis(octadeca-9,12,15-trienoate)], the “KD FVII 0.03 mg/kg” value in data set [3] (LNP Chol/DSPC/S010 45/44/9/2) is 85.8%.
`CCCCCCCCCCCCCC(=O)OCCCCOc1cc(CN(C)C)cc(OCCCCOC(=O)CCCCCCCCCCCCC)c1` [Example 61, ((5-((dimethylamino)methyl)-1,3-phenylene)bis(oxy))bis(butane-4,1-diyl)ditetradecanoate]: the “KD FVII 0.03 mg/kg” value in data set [3] (LNP Chol/DSPC/S010 45/44/9/2) came to 0%.
For the molecule `CCCCC/C=C\C/C=C\CCCCCCCC(=O)OCCCCOc1cc(CN2CCCC2)cc(OCCCCOC(=O)CCCCCCC/C=C\C/C=C\CCCCC)c1` [Ex. 112, (9Z,9′Z,12Z,12′Z)-((5-(pyrrolidin-1-ylmethyl)-1,3-phenylene)bis(oxy))bis(butane-4,1-diyl)bis(octadeca-9,12-dienoate)], the “KD FVII 0.03 mg/kg” value in data set [3] (setting [5]) was found to be 86%.
`CCCCCCCC/C=C\CCCCCCCC(=O)OCCCCOc1cc(CN(C)C)cc(OCCCCOC(=O)CCCCCCC/C=C\CCCCCCCC)c1` [Example 60, (Z)-((5-((dimethylamino)methyl)-1,3-phenylene)bis(oxy))bis(butane-4,1-diyl)dioleate]: the “KD FVII 0.03 mg/kg” value in data set [3] (LNP Chol/DSPC/S010 45/44/9/2) came out at 49.75%.
Turning to `CCCCCCCCCC(=O)OCCCCCCOc1cc(CN(C)C)cc(OCCCCCCOC(=O)CCCCCCCCC)c1` [Example 47, ((5-((dimethylamino)methyl)-1,3-phenylene)bis(oxy))bis(hexane-6,1-diyl)bis(decanoate)], the “KD FVII 0.3 mg/kg” value in data set [3] (setting [5]) is 99%.
With `CCCCCCCCCCCCC(=O)OCc1cc(COC(=O)CCCCCCCCCCCC)cc(CN(C)C)c1` [Example 34, (5-((dimethylamino)methyl)-1,3-phenylene)bis(methylene)ditridecanoate], in data set [3] (setting [5]), the “KD FVII 0.3 mg/kg” value turned out to be 0%.
As for `CCCCC/C=C\C/C=C\CCCCCCCCNC(=O)c1cc(COC(=O)CCCN(C)C)cc(C(=O)NCCCCCCCC/C=C\C/C=C\CCCCC)c1` [Example 66, 3,5-bis((9Z,12Z)-octadeca-9,12-dien-1-ylcarbamoyl)benzyl 4-(dimethylamino)butanoate], in data set [4] (course A = days 0 & 21), the “2wp1 pool 1” value is 75, the “2wp1 pool 2” value turned out to be 75, the “2wp2 pool 1” value was found to be 75 and the “2wp2 pool 2” value is on record as 75. In data set [4] (course A = days 0 & 21), the “4wp2 pool 1” value turned out to be 75 and the “4wp2 pool 2” value is reported as 75.
Regarding `CCCCC/C=C\C/C=C\CCCCCCCC(=O)OCCOc1cc(CN(C)C)cc(OCCOC(=O)CCCCCCC/C=C\C/C=C\CCCCC)c1` [Example 40, (9Z,9′Z, 12Z, 12′Z)-((5-((dimethylamino)methyl)-1,3-phenylene)bis(oxy))bis(ethane-2,1-diyl)bis(octadeca-9,12-dienoate)], the “KD FVII 0.03 mg/kg” value in data set [3] (LNP Chol/DSPC/S010 45/44/9/2) came to 8.2%. In addition, in data set [3] (setting [5]), the “KD FVII 0.3 mg/kg” value was determined as 89.8%.
Consider `CCCCC/C=C\C/C=C\CCCCCCCCOc1cc(COC(=O)OCCCN(C)C)cc(OCCCCCCCC/C=C\C/C=C\CCCCC)c1` [Example 68, 3,5-bis((9Z,12Z)-octadeca-9,12-dien-1-yloxy)benzyl (3-(dimethylamino)propyl) carbonate], for which, in data set [4] (course A = days 0 & 21), the “2wp1 pool 1” value was determined as 1031, the “2wp1 pool 2” value came to 494, the “2wp2 pool 1” value stood at 11315 and the “2wp2 pool 2” value amounted to 7800. For the same molecule, in data set [4] (course A = days 0 & 21), the “4wp2 pool 1” value amounted to 12963 and the “4wp2 pool 2” value is 17734.
On to `CCCCCCCC/C=C\CCCCCCCCOc1cc(OCCCCCCCC/C=C\CCCCCCCC)cc(C2OCC(CN3CCCC3)O2)c1` (centres unmarked) [Example 9, 1-((2-(3,5-bis((Z)-octadec-9-en-1-yloxy)phenyl)-1,3-dioxolan-4-yl)methyl)pyrrolidine], for which, in data set [4] (course A = days 0 & 21), the “2wp1 pool 1” value turned out to be 1832, the “2wp1 pool 2” value worked out at 1352, the “2wp2 pool 1” value was 29707 and the “2wp2 pool 2” value amounted to 18788.
For `CCCCCCCC/C=C\CCCCCCCCOc1cc(OCCCCCCCC/C=C\CCCCCCCC)cc(C2OCC(COC(=O)CN(C)C)O2)c1` (centres unmarked) [Example 12, (2-(3,5-bis((Z)-octadec-9-en-1-yloxy)phenyl)-1,3-dioxolan-4-yl)methyl 2-(dimethylamino)acetate], in data set [4] (course B = days 0 & 42), the “2wp1 pool 1” value is given as 88, the “2wp1 pool 2” value worked out at 128, the “2wp2 pool 1” value is on record as 4550 and the “2wp2 pool 2” value was 4828. Moreover, in data set [4] (course B = days 0 & 42), the “4wp2 pool 1” value stood at 4787 and the “4wp2 pool 2” value is listed as 3972.

The record behind these values is patent US10124065B2, “Lipids and lipid compositions for the delivery of active agents” (Novartis AG, priority 2013, dated 2018).
